Consider one compound from US20150157036A1, “Processed Cheese With Natural Antibacterial And Antimycotic Components And Method Of Manufacturing” (KRAFT FOODS GROUP BRANDS LLC, priority 2013, published 2015).

Values joined by “and” are separate entries in the source; they are usually repeats but may differ in a detail not shown here. Equal values may be shown once.

In data set [1] the test system is mold cocktail of Phoma spp., Geotrichum spp., Cladosporium spp., and Penicillium spp. The data set can be described thus: Mold challenge study of processed cheese slices inoculated with a mold cocktail. Format: cell-based. The method, then:
In some approaches, the processed cheese includes an amount of natural antimycotic effective to prevent mold growth for at least about three months, in another aspect at least about four months, in another aspect at least about five months, in another aspect at least about six months, and in yet another aspect at least about seven months, when the processed cheese is stored at about 1 to about 10° C. The efficacy of the natamycin in the processed cheese product can be determined by conducting a mold challenge study, where samples of the processed cheese are inoculated with a known quantity of mold spores, such as 90 cfu/g or 500 cfu/g, and inspecting the samples for visible mold growth during storage at 40 to 45° F.
Natamycin (Natamax SF from Danisco) was incorporated into processed cheese (prior to the cooking step) at concentrations of 7 ppm and 15 ppm. The processed cheese was then submitted to a mold challenge study. The processed cheese was inoculated with a mold cocktail (spores in liquid media) of Phoma spp., Geotrichum spp., Cladosporium spp., and Penicillium spp. (which represent common types of mold) at 90 spores per 19 gram slice. The samples are inoculated by spreading the cocktail on top of cheese slices. A control was not inoculated. […] The detectable level of natamycin was determined by HPLC. […]

A further data set has as its system mold. Put plainly: Shelf life of processed cheese slices, visible mold during storage. Format: cell-based. As to conditions: processed cheese slices containing about 4.8 ppm natamycin; stored at 45° F.; control without natamycin showed visible mold at three months. From the text:
Processed cheese slices were produced containing about 4.8 ppm natamycin (Natamax SF from Danisco).

Data set [2] can be described thus: Detectable level of natamycin in processed cheese by HPLC during storage. Format: physicochemical. As to conditions: for detectable natamycin concentration in the product: by six months, stored at 45° F.; for natamycin in processed cheese, on average: three days after producing the processed cheese, four samples. On the procedure:
Natamycin (Natamax SF from Danisco) was incorporated into processed cheese (prior to the cooking step) at 15 ppm. Cultured dairy component containing nisin was incorporated into all products at 8 percent based on the total weight of the processed cheese. Samples of the processed cheese were inoculated at 100 cfu/g and 500 cfu/g. The detectable level of natamycin was determined by HPLC.

Where [3] appears, read: average of samples, dosage level 15 ppm, storage at 45° F.
[4] abbreviates: dosage level 15 ppm before cooking, 8 percent cultured dairy component containing nisin, storage at 45° F., HPLC, single samples.

With `C[C@@H]1C/C=C/C=C/C=C/C=C/[C@H](O[C@@H]2O[C@H](C)[C@@H](O)[C@H](N)[C@@H]2O)C[C@@H]2O[C@](O)(C[C@@H](O)C[C@H]3O[C@@H]3/C=C/C(=O)O1)C[C@H](O)[C@H]2C(=O)O` [Natamycin, natamycin], the “shelf life relative to control” value in data set [1] (10 ppm and 15 ppm natamycin plus 8 percent cultured dairy component containing nisin, inoculated with 500 cfu/g or 9,500 spores per slice) is recorded as “almost double that of control”. Besides, the “extension of shelf life versus control that lacked mold inhibitor” value in data set [1] (processed cheese with 7 ppm or 15 ppm natamycin added before cooking, 90 spores per 19 gram slice, stored at 45° F.) was “at least six months longer than a control”. For the same compound, the “visible mold at five months of shelf life” value with mold is listed as “no visible mold”. Also, the “detectable natamycin concentration in the product” value in data set [2] (7 ppm sample, HPLC) is on record as 0.62 ppm. Besides, in data set [2] (15 ppm sample, HPLC), the “detectable natamycin concentration in the product” value was determined as 4.89 ppm. In addition, in data set [2] (setting [3]), the “Detected Natamycin Concentration (ppm) after Four Months, average” value is “Average = 3.39 ppm”; the “Detected Natamycin Concentration (ppm) after One Week, average” value is “Average = 4.68 ppm”; the “Detected Natamycin Concentration (ppm) after Two Months, average” value is listed as “Average = 5.93 ppm”. In addition, in data set [2] (setting [4]), the “Detected Natamycin Concentration (ppm) after Four Months” value was 3.07 ppm and 3.39 ppm and 3.64 ppm and 2.97 ppm and 3.37 ppm and 3.28 ppm and 3.14 ppm; the “Detected Natamycin Concentration (ppm) after One Week” value is 4.61 ppm and 4.63 ppm and 4.80 ppm; the “Detected Natamycin Concentration (ppm) after Three Months” value is 6.87 ppm and 6.34 ppm and 7.46 ppm and 6.13 ppm and 6.84 ppm and 6.78 ppm and 7.36 ppm; the “Detected Natamycin Concentration (ppm) after Two Months” value is 6.73 ppm and 4.62 ppm and 6.32 ppm and 5.34 ppm and 5.91 ppm and 6.81 ppm and 5.67 ppm. Further, the “change of the detectable quantity of natamycin during storage” value in data set [2] (processed cheese with natamycin and cultured dairy component, HPLC) is “increase in months 2 and 3 of storage and then decrease in month 4”. For the same compound, the “natamycin in processed cheese, on average” value in data set [2] (starting with 10 ppm, 8 percent cultured dairy component containing nisin) stood at 2.8 ppm. In data set [2] (starting with 15 ppm, 8 percent cultured dairy component containing nisin), the “natamycin in processed cheese, on average” value was 4.9 ppm.
